Structures are written as SMILES.

The record followed here is patent publication US7608615B2, “Pyrrolo[2,1-C][1,4]benzodiazepine hybrids and a process for the preparation thereof” (Council of Scientific & Industrial Research, priority 2006, dated 2009).

Holding throughout (format): cell-based, human
The test system of one assay is Colo205. The assay can be described thus: in vitro cytotoxicity, Colo205 colon cancer cells. To be noted: for percentage cell growth (Activity status in terms of IC50 values) Colo205 Colon: 48 h continuous drug exposure, percent of cell growth relative to untreated control cells; for suppress Colo205 cell growth: suppression of cell growth, 48 h exposure. As for the experimental part: (§1) Cytotoxicity: The compounds 7-methoxy-8-[3-(6-chloro-2-oxo-4-phenyl-1,2-dihydro-1-quinazolinyl)propoxy]-(11aS)-1,2,3,11a-tetrahydro-5H-pyrrolo[2,1-c][1,4]benzodiazepine-5-one and 7-methoxy-8-[5-(6-chloro-2-oxo-4-phenyl-1,2-dihydro-1-quinazolinyl)pentyloxy]-(11aS)-1,2,3,11a-tetrahydro-5H-pyrrolo [2,1-c][1,4]benzodiazepine-5-one were evaluated for in vitro anticancer activity against nine human tumour cells derived from six cancer types (colon, prostate, oral, lung, cervix and breast cancer) as shown in (Table 1).
(§2) Compounds 5d and 5f have been evaluated for their in vitro cytotoxicity in selected human cancer cell lines of colon (Colo205), lung (Hop-62), cervix (SiHa), prostate (DU145, PC3), oral (DWD, HT1080), and breast (MCF7, Zr-75-1) origin. A protocol of 48 h continuous drug exposure and an […] protein assay has been used to estimate cell viability or growth. The results are expressed as percent of cell growth determined relative to that of untreated control cells (Table 1).

The subject of a further assay is DU145. The assay can be described thus: in vitro cytotoxicity, DU145 prostate cancer cells. To be noted: for percentage cell growth (Activity status in terms of IC50 values) DU145 Prostate: 48 h continuous drug exposure, percent of cell growth relative to untreated control cells; for suppress DU145 cell growth: suppression of cell growth, 48 h exposure. As for the experimental part: as §1, §2

The test system of a further assay is DWD. The assay can be described thus: in vitro cytotoxicity, DWD oral cancer cells. The note with it: for percentage cell growth (Activity status in terms of IC50 values) DWD Oral: 48 h continuous drug exposure, percent of cell growth relative to untreated control cells; for suppress DWD cell growth: suppression of cell growth, 48 h exposure. The protocol: as §1, §2

A further assay relates to Hop62. The assay can be described thus: in vitro cytotoxicity, Hop62 lung cancer cells. The note with it: for percentage cell growth (Activity status in terms of IC50 values) Hop62 Lung: 48 h continuous drug exposure, percent of cell growth relative to untreated control cells; for suppress Hop62 cell growth: suppression of cell growth, 48 h exposure. The protocol:
as §1, §2

The subject of the next assay is HT1080. The assay can be described thus: in vitro cytotoxicity, HT1080 oral cancer cells. The note with it: for percentage cell growth (Activity status in terms of IC50 values) HT1080 Oral: 48 h continuous drug exposure, percent of cell growth relative to untreated control cells; for suppress HT1080 cell growth: suppression of cell growth, 48 h exposure. As for the experimental part:
as §1, §2

A further assay has as its system MCF7. The assay can be described thus: in vitro cytotoxicity, MCF7 breast cancer cells. To be noted: for percentage cell growth (Activity status in terms of IC50 values) MCF7 Breast: 48 h continuous drug exposure, percent of cell growth relative to untreated control cells; for suppress MCF7 cell growth: suppression of cell growth, 48 h exposure. The protocol: as §1, §2

The next assay relates to PC3. The assay can be described thus: in vitro cytotoxicity, PC3 prostate cancer cells. To be noted: for percentage cell growth (Activity status in terms of IC50 values) PC3 Prostate: 48 h continuous drug exposure, percent of cell growth relative to untreated control cells; for suppress PC3 cell growth: suppression of cell growth, 48 h exposure. The protocol: as §1, §2
The subject of a further assay is SiHa. The assay can be described thus: in vitro cytotoxicity, SiHa cervix cancer cells. The note with it: for percentage cell growth (Activity status in terms of IC50 values) SiHa Cervix: 48 h continuous drug exposure, percent of cell growth relative to untreated control cells; for suppressing the SiHa cell growth: suppression of cell growth, 48 h exposure. The protocol:
as §1, §2

For the next assay, the system named is Zr-75-1. The assay can be described thus: in vitro cytotoxicity, Zr-75-1 breast cancer cells. To be noted: for percentage cell growth (Activity status in terms of IC50 values) Zr-75-1 Breast: 48 h continuous drug exposure, percent of cell growth relative to untreated control cells; for suppressing Zr-25-1 cell growth: suppression of cell growth, 48 h exposure. The protocol:
as §1, §2

As to `COc1cccc2c1C(=O)c1c(O)c3c(c(O)c1C2=O)C[C@@](O)(C(=O)CO)C[C@@H]3O[C@H]1C[C@H](N)[C@H](O)[C@H](C)O1` [ADR, adriamycin, reference compound], in the assay on Colo205, the “percentage cell growth (Activity status in terms of IC50 values) Colo205 Colon” value came out at 5%. In addition, the “percentage cell growth (Activity status in terms of IC50 values) DU145 Prostate” value in the assay with DU145 was found to be 6%. For the same compound, the “percentage cell growth (Activity status in terms of IC50 values) DWD Oral” value in the assay with DWD stood at 2%. In addition, in the assay with Hop62, the “percentage cell growth (Activity status in terms of IC50 values) Hop62 Lung” value is recorded as 5%. Also, the “percentage cell growth (Activity status in terms of IC50 values) HT1080 Oral” value in the assay on HT1080 came to 4%. Besides, the “percentage cell growth (Activity status in terms of IC50 values) MCF7 Breast” value in the assay on MCF7 is 5%. For the same compound, the “percentage cell growth (Activity status in terms of IC50 values) PC3 Prostate” value with PC3 is on record as 5%. In addition, in the assay on SiHa, the “percentage cell growth (Activity status in terms of IC50 values) SiHa Cervix” value is listed as 5%. The “percentage cell growth (Activity status in terms of IC50 values) Zr-75-1 Breast” value in the assay on Zr-75-1 is recorded as 5%.

On to `COc1cc2c(cc1OCCCn1c(=O)nc(-c3ccccc3)c3cc(Cl)ccc31)N=C[C@@H]1CCCN1C2=O` [Compound 5d, 7-Methoxy-8-[3-(6-chloro-2-oxo-4-phenyl-1,2-dihydro-1-quinazolinyl)propoxy]-(11aS)-1,2,3,11a-tetrahydro-5H-pyrrolo[2,1-c][1,4]benzodiazepine-5-one], for which, in the assay on Colo205, the “percentage cell growth (Activity status in terms of IC50 values) Colo205 Colon” value stood at 8% and the “suppress Colo205 cell growth” value came to 92%. In the assay with DU145, the “percentage cell growth (Activity status in terms of IC50 values) DU145 Prostate” value is recorded as 8% and the “suppress DU145 cell growth” value is listed as 92%. In the assay with DWD, the “percentage cell growth (Activity status in terms of IC50 values) DWD Oral” value came to 5% and the “suppress DWD cell growth” value was 95%. In the assay on Hop62, the “percentage cell growth (Activity status in terms of IC50 values) Hop62 Lung” value came to 6% and the “suppress Hop62 cell growth” value is given as 94%. Moreover, in the assay on HT1080, the “percentage cell growth (Activity status in terms of IC50 values) HT1080 Oral” value came to 9% and the “suppress HT1080 cell growth” value was found to be 91%. Besides, in the assay on MCF7, the “percentage cell growth (Activity status in terms of IC50 values) MCF7 Breast” value was 12% and the “suppress MCF7 cell growth” value is on record as 88%. In addition, in the assay on PC3, the “percentage cell growth (Activity status in terms of IC50 values) PC3 Prostate” value is 11% and the “suppress PC3 cell growth” value came to 89%. Also, in the assay with SiHa, the “percentage cell growth (Activity status in terms of IC50 values) SiHa Cervix” value was 16% and the “suppressing the SiHa cell growth” value is 84%. For the same compound, in the assay on Zr-75-1, the “percentage cell growth (Activity status in terms of IC50 values) Zr-75-1 Breast” value is 8% and the “suppressing Zr-25-1 cell growth” value was 92%.

For `COc1cc2c(cc1OCCCCCn1c(=O)nc(-c3ccccc3)c3cc(Cl)ccc31)N=C[C@@H]1CCCN1C2=O` [Compound 5f, 7-Methoxy-8-[5-(6-chloro-2-oxo-4-phenyl-1,2-dihydro-1-quinazolinyl)pentyloxy]-(11aS)-1,2,3,11a-tetrahydro-5H-pyrrolo[2,1-c][1,4]benzodiazepine-5-one], in the assay with Colo205, the “percentage cell growth (Activity status in terms of IC50 values) Colo205 Colon” value is given as 15% and the “suppress Colo205 cell growth” value came to 85%. Further, in the assay with DU145, the “percentage cell growth (Activity status in terms of IC50 values) DU145 Prostate” value is listed as 10% and the “suppress DU145 cell growth” value turned out to be 90%. In addition, in the assay with DWD, the “percentage cell growth (Activity status in terms of IC50 values) DWD Oral” value came out at 5% and the “suppress DWD cell growth” value came to 95%. In addition, in the assay with Hop62, the “percentage cell growth (Activity status in terms of IC50 values) Hop62 Lung” value was determined as 5% and the “suppress Hop62 cell growth” value stood at 95%. Besides, in the assay on HT1080, the “percentage cell growth (Activity status in terms of IC50 values) HT1080 Oral” value came out at 8% and the “suppress HT1080 cell growth” value is on record as 92%. Moreover, in the assay with MCF7, the “percentage cell growth (Activity status in terms of IC50 values) MCF7 Breast” value was found to be 8% and the “suppress MCF7 cell growth” value worked out at 92%. Moreover, in the assay on PC3, the “percentage cell growth (Activity status in terms of IC50 values) PC3 Prostate” value is given as 7% and the “suppress PC3 cell growth” value is 93%. In the assay with SiHa, the “percentage cell growth (Activity status in terms of IC50 values) SiHa Cervix” value came out at 16% and the “suppressing the SiHa cell growth” value was found to be 84%. Also, in the assay with Zr-75-1, the “percentage cell growth (Activity status in terms of IC50 values) Zr-75-1 Breast” value is 8% and the “suppressing Zr-25-1 cell growth” value is reported as 92%.
